Assay results taken from US20100111888A1, “Organic Compounds and Compositions Having the Ability to Modulate Fragrance Compositions” (GIVAUDAN SA, priority 2007, published 2010).

Target: T1, CYP2A13 (Homo sapiens, UniProt Q16696)
T1 construct: made in house; host or cells: Sf9 insect cells, recombinant baculovirus
T1 sequence (Q16696 1-494): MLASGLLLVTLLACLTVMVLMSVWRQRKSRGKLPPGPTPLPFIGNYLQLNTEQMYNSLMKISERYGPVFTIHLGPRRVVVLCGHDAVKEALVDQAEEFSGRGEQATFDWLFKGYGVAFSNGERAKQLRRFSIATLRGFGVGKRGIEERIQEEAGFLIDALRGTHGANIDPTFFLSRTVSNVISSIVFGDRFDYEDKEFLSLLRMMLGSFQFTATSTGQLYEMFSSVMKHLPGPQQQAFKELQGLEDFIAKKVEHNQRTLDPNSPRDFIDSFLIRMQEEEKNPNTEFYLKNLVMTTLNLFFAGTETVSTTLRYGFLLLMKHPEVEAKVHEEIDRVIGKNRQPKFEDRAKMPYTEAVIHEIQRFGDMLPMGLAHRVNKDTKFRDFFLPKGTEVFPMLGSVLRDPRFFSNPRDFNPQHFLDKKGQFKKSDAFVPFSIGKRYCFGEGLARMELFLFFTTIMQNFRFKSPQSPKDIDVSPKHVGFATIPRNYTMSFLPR
Experiment: Evaluation of test compounds as inhibitors of CYP2A13 (coumarin to Umbelliferone, fluorescence)
Assay type: biochemical
Conditions: substrate coumarin 0.006 mM; microsomes with 7 pmoles CYP2A13; 60 min at 37° C.; read-out: CYP2A13 inhibitor activity IC50
Text: P450 reductase is commercially available (BD Biosciences Gentest, USA).
Microsomes were used which contained 7 pmoles CYP2A13.

| IC50 [nM] | Structure (SMILES) |
| --- | --- |
| 3000 | CCCCCC/C(=C\c1ccccc1)C(C)=O [Compound ID 6, (E)-3-benzylidenenonan-2-one] |
| 2000 | CCCCC/C(=C\c1ccc(C#N)cc1)C(C)=O [Compound ID 7, (E)-4-(2-acetylhept-1-enyl)benzonitrile] |
| 16300 | CCCCC/C(=C\c1ccc2ccccc2c1)C(C)=O [Compound ID 8, (E)-3-(naphthalen-2-ylmethylene)octan-2-one] |
| 5300 | CCCCC/C(=C\c1cccs1)C(C)=O [Compound ID 9, (E)-3-(thiophen-2-ylmethylene)octan-2-one] |
| 15500 | CCCC/C(=C\C1CCOC1)C(C)=O (stereo not shown) [Compound ID 10, (E)-3-((tetrahydrofuran-3-yl)methylene)heptan-2-one] |
| 1600 | CCCCC/C(=C\C(OC)OC)C(C)=O [Compound ID 11, (E)-3-(2,2-dimethoxyethylidene)octan-2-one] |
| 3200 | CCCCC/C(=C\CC1(C)OCCO1)C(C)=O [Compound ID 12, (E)-3-(2-(2-methyl-1,3-dioxolan-2-yl)ethylidene)octan-2-one] |
| 9700 | CCCCCC/C(=C\C1CC1)C(=O)/C=C/C1CC1 [Compound ID 13, (1E,4E)-1-cyclopropyl-4-(cyclopropylmethylene)dec-1-en-3-one] |
| 2100 | CCCCCC1(C(=O)OC)CCCC1 [Compound ID 14, methyl 1-pentylcyclopentanecarboxylate] |
| 700 | CCCCCC1(C(C)=O)CCCC1 [Compound ID 15, 1-(1-pentylcyclopentyl)ethanone] |
| 500 | CCCCC/C(=C\C1CCCCC1)C(C)=O [Compound ID 16, (E)-3-(cyclohexylmethylene)octan-2-one] |
| 600 | CCCCC/C(=C\C1CC=CCC1)C(C)=O (stereo not shown) [Compound ID 17, (E)-3-(cyclohex-3-enylmethylene)octan-2-one] |
| 500 | CCCCC/C(=C\C1CCCC1)C(C)=O [Compound ID 18, (E)-3-(cyclopentylmethylene)octan-2-one] |
| 300 | CCCCC/C(=C\C1CCC1)C(C)=O [Compound ID 19, (E)-3-(cyclobutylmethylene)octan-2-one] |
| 300 | CCCCC/C(=C\c1ccccc1F)C(C)=O [Compound ID 20, (E)-3-(2-fluorobenzylidene)octan-2-one] |
| 300 | CCCCC/C(=C\c1cccc(F)c1)C(C)=O [Compound ID 21, (E)-3-(3-fluorobenzylidene)octan-2-one] |
| 400 | CCCCC/C(=C\c1ccc(F)cc1)C(C)=O [Compound ID 22, (E)-3-(4-fluorobenzylidene)octan-2-one] |
| 200 | CCCCC/C(=C\c1c(F)cccc1F)C(C)=O [Compound ID 23, (E)-3-(2,6-difluorobenzylidene)octan-2-one] |
| 200 | CCCCC/C(=C\c1ccc(F)cc1F)C(C)=O [Compound ID 24, (E)-3-(2,4-difluorobenzylidene)octan-2-one] |
| 600 | CCCCC/C(=C\c1cc(F)cc(F)c1)C(C)=O [Compound ID 25, (E)-3-(3,5-difluorobenzylidene)octan-2-one] |
| 14300 | CCCCC/C(=C/c1cc(F)cc(F)c1)C(C)=O [Compound ID 26, (Z)-3-(3,5-difluorobenzylidene)octan-2-one] |
| 700 | CCCCC/C(=C\c1c(F)c(F)c(F)c(F)c1F)C(C)=O [Compound ID 27, (E)-3-(perfluorobenzylidene)octan-2-one] |
| 300 | CCCCC/C(=C\c1ccccc1C)C(C)=O [Compound ID 28, (E)-3-(2-methylbenzylidene)octan-2-one] |
| 400 | CCCCC/C(=C\c1cccc(C)c1)C(C)=O [Compound ID 29, (E)-3-(3-methylbenzylidene)octan-2-one] |
| 400 | CCCCC/C(=C\c1ccc(C)cc1)C(C)=O [Compound ID 30, (E)-3-(4-methylbenzylidene)octan-2-one] |
| 200 | CCCCC/C(=C\c1ccccc1C(F)(F)F)C(C)=O [Compound ID 31, (E)-3-(2-(trifluoromethyl)benzylidene)octan-2-one] |

| IC50 [nM] | Structure (SMILES) |
| --- | --- |
| 1000 | CCC/C(=C\c1ccccc1)C(C)=O [Compound ID 32, (E)-3-benzylidenehexan-2-one] |
| 600 | CCCC/C(=C\c1ccccc1)C(C)=O [Compound ID 33, (E)-3-benzylideneheptan-2-one] |
| 400 | CCCCC/C(=C\c1ccccc1OC)C(C)=O [Compound ID 34, (E)-3-(2-methoxybenzylidene)octan-2-one] |
| 500 | CCCCC/C(=C\c1cccc(OC)c1)C(C)=O [Compound ID 35, (E)-3-(3-methoxybenzylidene)octan-2-one] |
| 400 | CCCCC/C(=C\c1ccc(OC)cc1)C(C)=O [Compound ID 36, (E)-3-(4-methoxybenzylidene)octan-2-one] |
| 1400 | CCCC/C(=C\c1ccc(OC)cc1)C(C)=O [Compound ID 37, (E)-3-(4-methoxybenzylidene)heptan-2-one] |
| 2000 | CCC/C(=C\c1ccc(OC)cc1)C(C)=O [Compound ID 38, (E)-3-(4-methoxybenzylidene)hexan-2-one] |
| 2000 | CCCCC/C(=C\c1ccc2c(c1)OCO2)C(C)=O [Compound ID 39, (E)-3-(benzo[d][1,3]dioxol-5-ylmethylene)octan-2-one] |
| 1100 | CCCCC/C(=C\c1ccc(C(=O)OC)cc1)C(C)=O [Compound ID 40, (E)-methyl 4-(2-acetylhept-1-enyl)benzoate] |
| 47200 | CCCCC/C(=C/c1ccc(C(=O)OC)cc1)C(C)=O [Compound ID 41, (Z)-methyl 4-(2-acetylhept-1-enyl)benzoate] |
| 100 | CCCCC/C(=C\c1ccccn1)C(C)=O [Compound ID 43, (E)-3-(pyridin-2-ylmethylene)octan-2-one] |
| 100 | CCCCC/C(=C\c1cccnc1)C(C)=O [Compound ID 44, (E)-3-(pyridin-3-ylmethylene)octan-2-one] |
| 500 | CCCCC/C(=C\c1ccncc1)C(C)=O [Compound ID 45, (E)-3-(pyridin-4-ylmethylene)octan-2-one] |
| 2300 | CCCCC/C(=C\C1CC1)C(=O)OC [Compound ID 46, (E)-methyl 2-(cyclopropylmethylene)heptanoate] |
| 500 | CCCCC/C(=C\c1ccccc1)C(=O)OC [Compound ID 47, (E)-methyl 2-benzylideneheptanoate] |
| 8700 | CCCCCC(CC1CC1)C(=O)OC (stereo not shown) [Compound ID 48, methyl 2-(cyclopropylmethyl)heptanoate] |
| 4400 | CCCCCC(Cc1ccccc1)C(=O)OC (stereo not shown) [Compound ID 49, methyl 2-benzylheptanoate] |
| 1300 | CCCCCC(CC1CC1)C(C)=O (stereo not shown) [Compound ID 50, 3-(cyclopropylmethyl)octan-2-one] |
| 2500 | CCCCC/C(C(C)=O)=C(/C)c1ccccc1 [Compound ID 51, (E)-3-(1-phenylethylidene)octan-2-one] |
| 6600 | CCCCC/C(=C\C1CC1)C(=O)c1ccccc1 [Compound ID 52, (E)-2-(cyclopropylmethylene)-1-phenylheptan-1-one] |
| 1900 | CCCCC/C(=C\C(C)(C)C)C(=O)OC [Compound ID 53, (E)-methyl 2-(2,2-dimethylpropylidene)heptanoate] |
| 2600 | CCCCC/C(=C\C(C)(C)C)C(=O)O [Compound ID 54, (E)-2-(2,2-dimethylpropylidene)heptanoic acid] |
| 300 | CCCCC/C(=C\C(C)(C)C)C(C)=O [Compound ID 55, (E)-3-(2,2-dimethylpropylidene)octan-2-one] |
| 200 | CCCCC/C(=C\C(C)C)C(C)=O [Compound ID 56, (E)-3-(2-methylpropylidene)octan-2-one] |
| 300 | CCCCC/C(=C\C1CC1)C(=O)CC [Compound ID 57, (E)-4-(cyclopropylmethylene)nonan-3-one] |
| 500 | CCCCC/C(=C\c1ccccc1)C(=O)CC [Compound ID 58, (E)-4-benzylidenenonan-3-one] |
